Results on 9 compounds are retold here after ChEMBL document CHEMBL3621135 (ACS Med Chem Lett, 2015).

The nature of series [1]: Antiproliferative activity against human SET2 cells incubated for 72 hrs by [3H] thymidine incorporation assay. The settings on record: SET-2. The format is functional, cell-based.
Series [2] addresses Tyrosine-protein kinase JAK1 (Homo sapiens, UniProt P23458). Put plainly: Inhibition of recombinant JAK1 (unknown origin) using 5-FAM-KKKKEEIYFFFG-OH substrate and ATP incubated for 180 mins by […] method.
Series [3] addresses Tyrosine-protein kinase JAK2 (Homo sapiens, UniProt O60674). Put plainly: Inhibition of recombinant JAK2 (unknown origin) using 5-FAM-KKKKEEIYFFFG-OH substrate and ATP incubated for 180 mins by […] method.
For series [4], the target named is T1, Tyrosine-protein kinase JAK3 (Homo sapiens, UniProt P52333).
T1 sequence (P52333 whole entry): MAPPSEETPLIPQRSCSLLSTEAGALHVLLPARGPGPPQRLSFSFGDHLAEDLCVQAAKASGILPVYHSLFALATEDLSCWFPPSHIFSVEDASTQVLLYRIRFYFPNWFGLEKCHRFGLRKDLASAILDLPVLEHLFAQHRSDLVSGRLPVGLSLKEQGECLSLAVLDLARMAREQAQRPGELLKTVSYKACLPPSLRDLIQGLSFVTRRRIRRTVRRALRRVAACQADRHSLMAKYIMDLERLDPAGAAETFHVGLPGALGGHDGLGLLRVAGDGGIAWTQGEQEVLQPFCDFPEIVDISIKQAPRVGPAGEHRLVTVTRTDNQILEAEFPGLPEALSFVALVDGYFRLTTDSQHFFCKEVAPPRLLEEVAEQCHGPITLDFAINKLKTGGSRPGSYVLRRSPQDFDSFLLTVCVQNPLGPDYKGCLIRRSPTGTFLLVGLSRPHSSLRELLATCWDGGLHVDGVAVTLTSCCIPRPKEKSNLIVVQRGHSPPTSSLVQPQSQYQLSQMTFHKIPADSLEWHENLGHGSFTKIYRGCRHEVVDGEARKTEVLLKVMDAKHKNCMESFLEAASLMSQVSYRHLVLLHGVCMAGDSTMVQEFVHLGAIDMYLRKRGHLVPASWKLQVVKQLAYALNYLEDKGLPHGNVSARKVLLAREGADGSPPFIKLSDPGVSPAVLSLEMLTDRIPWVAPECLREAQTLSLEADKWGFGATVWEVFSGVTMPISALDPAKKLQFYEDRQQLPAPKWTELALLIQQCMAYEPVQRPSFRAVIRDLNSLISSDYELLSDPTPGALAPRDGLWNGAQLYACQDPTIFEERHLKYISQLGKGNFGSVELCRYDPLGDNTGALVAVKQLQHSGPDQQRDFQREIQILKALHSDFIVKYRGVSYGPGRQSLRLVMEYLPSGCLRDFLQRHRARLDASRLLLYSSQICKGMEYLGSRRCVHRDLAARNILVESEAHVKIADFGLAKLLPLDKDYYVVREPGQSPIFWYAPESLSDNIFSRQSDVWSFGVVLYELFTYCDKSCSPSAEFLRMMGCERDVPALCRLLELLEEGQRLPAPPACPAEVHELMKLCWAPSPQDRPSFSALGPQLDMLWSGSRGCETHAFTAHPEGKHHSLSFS
Put plainly: Inhibition of recombinant JAK3 (unknown origin) using 5-FAM-KKKKEEIYFFFG-OH substrate and ATP incubated for 180 mins by […] method.

The subject of series [5] is Liver microsome. Nature of the series: Drug metabolism in human liver microsomes assessed as thiourea formation at 10 uM in presence of NADPH by HPLC/UV/MS method. The class given is ADME. Background: Liver microsomes are a subcellular fraction often used to study metabolism.
Series [6] addresses Non-receptor tyrosine-protein kinase TYK2 (Homo sapiens, UniProt P29597). Nature of the series: Inhibition of recombinant TYK2 (unknown origin) by scintillation counting method.
In series [7] the target is hERG (Homo sapiens, UniProt Q12809). Put plainly: Inhibition of human ERG channel at 30 uM.

The structures appear in SMILES notation. pIC50: −log10 of the molar value.

Chain of Tyrosine-protein kinase JAK2 (O60674 whole entry): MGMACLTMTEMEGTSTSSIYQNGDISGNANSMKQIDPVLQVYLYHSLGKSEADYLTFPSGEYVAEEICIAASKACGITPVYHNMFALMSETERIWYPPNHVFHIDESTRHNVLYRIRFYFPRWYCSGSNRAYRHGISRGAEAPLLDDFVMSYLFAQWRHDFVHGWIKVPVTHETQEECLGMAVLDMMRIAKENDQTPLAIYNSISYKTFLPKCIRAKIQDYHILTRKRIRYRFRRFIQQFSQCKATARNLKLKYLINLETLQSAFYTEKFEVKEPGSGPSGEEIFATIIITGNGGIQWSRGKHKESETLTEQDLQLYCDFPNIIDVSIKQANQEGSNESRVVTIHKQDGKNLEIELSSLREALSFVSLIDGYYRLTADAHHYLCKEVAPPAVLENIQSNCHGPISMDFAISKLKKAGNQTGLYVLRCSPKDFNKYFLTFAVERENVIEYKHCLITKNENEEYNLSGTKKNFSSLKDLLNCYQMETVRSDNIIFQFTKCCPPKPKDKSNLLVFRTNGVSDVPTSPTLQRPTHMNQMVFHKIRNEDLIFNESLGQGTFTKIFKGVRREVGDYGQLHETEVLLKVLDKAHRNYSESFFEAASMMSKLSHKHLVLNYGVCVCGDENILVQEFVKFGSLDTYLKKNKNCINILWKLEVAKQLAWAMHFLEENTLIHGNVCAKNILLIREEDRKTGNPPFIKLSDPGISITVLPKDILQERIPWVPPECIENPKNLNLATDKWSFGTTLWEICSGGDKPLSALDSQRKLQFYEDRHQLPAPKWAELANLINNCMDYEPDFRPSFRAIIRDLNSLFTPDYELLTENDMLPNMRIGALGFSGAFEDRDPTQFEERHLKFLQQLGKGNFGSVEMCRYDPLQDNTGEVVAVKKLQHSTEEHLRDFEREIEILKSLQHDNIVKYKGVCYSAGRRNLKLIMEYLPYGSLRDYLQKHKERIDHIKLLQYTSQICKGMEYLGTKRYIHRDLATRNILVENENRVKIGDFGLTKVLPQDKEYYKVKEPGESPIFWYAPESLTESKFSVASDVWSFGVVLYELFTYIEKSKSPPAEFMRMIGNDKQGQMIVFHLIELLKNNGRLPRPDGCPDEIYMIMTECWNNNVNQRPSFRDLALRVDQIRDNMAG
Chain of Non-receptor tyrosine-protein kinase TYK2 (P29597 whole entry): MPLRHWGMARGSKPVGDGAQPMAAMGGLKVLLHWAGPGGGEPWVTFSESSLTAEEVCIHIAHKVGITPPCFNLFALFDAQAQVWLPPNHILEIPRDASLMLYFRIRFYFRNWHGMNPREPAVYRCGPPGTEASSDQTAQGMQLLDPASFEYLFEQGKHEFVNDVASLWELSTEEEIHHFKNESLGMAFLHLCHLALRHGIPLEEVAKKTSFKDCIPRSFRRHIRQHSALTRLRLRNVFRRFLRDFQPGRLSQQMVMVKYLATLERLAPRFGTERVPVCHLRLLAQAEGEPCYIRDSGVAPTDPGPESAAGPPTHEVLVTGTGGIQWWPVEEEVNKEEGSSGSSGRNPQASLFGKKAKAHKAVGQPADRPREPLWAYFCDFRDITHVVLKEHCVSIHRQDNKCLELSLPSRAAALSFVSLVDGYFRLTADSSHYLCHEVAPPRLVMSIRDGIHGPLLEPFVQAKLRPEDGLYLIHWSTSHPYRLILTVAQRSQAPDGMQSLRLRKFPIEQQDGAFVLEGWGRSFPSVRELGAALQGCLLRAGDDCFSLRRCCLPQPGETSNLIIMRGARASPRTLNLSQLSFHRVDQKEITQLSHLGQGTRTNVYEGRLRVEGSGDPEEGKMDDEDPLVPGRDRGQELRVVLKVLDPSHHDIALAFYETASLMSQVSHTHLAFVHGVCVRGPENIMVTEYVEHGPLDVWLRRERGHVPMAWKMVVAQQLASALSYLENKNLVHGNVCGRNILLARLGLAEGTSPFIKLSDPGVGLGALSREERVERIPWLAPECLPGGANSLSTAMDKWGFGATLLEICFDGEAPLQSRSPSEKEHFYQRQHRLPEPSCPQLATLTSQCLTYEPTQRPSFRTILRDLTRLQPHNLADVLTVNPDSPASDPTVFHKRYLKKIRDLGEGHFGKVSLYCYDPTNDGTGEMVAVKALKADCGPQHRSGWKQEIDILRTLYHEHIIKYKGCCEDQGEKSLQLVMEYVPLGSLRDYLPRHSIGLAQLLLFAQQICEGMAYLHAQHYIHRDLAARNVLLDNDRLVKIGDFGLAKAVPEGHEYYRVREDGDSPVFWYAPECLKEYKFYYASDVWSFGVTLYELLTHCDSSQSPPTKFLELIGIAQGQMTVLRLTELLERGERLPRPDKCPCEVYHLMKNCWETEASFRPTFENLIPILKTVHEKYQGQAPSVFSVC
Chain of Tyrosine-protein kinase JAK1 (P23458 whole entry): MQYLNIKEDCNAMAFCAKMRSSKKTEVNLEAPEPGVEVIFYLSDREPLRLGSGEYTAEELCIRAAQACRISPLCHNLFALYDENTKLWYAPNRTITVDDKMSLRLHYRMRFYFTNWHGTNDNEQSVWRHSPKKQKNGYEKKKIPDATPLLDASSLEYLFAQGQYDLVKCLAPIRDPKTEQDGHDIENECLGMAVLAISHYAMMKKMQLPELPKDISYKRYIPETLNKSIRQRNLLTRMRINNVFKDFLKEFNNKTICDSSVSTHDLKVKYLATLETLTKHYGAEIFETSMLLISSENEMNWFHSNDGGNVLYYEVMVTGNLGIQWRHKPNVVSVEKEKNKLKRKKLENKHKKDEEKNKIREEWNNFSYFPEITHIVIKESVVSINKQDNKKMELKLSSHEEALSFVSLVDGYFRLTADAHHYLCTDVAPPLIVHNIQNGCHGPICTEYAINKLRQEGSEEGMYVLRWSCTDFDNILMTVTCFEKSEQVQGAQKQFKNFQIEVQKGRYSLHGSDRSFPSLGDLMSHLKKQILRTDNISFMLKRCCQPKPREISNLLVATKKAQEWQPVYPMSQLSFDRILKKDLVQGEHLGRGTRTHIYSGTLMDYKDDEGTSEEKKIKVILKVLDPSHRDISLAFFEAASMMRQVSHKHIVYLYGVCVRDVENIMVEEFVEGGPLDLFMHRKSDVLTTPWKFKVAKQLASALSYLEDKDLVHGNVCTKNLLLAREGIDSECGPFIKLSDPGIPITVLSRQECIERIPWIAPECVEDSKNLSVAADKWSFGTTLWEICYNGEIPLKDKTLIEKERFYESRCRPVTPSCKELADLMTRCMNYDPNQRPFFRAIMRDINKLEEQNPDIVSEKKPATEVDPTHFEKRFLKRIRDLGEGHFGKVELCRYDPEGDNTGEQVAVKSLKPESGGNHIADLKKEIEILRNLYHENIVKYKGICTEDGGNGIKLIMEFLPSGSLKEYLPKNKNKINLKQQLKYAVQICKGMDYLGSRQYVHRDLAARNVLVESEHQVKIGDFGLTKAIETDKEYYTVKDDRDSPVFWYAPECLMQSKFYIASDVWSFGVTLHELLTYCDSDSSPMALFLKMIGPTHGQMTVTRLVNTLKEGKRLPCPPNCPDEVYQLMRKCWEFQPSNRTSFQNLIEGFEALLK
Chain of hERG (Q12809 whole entry): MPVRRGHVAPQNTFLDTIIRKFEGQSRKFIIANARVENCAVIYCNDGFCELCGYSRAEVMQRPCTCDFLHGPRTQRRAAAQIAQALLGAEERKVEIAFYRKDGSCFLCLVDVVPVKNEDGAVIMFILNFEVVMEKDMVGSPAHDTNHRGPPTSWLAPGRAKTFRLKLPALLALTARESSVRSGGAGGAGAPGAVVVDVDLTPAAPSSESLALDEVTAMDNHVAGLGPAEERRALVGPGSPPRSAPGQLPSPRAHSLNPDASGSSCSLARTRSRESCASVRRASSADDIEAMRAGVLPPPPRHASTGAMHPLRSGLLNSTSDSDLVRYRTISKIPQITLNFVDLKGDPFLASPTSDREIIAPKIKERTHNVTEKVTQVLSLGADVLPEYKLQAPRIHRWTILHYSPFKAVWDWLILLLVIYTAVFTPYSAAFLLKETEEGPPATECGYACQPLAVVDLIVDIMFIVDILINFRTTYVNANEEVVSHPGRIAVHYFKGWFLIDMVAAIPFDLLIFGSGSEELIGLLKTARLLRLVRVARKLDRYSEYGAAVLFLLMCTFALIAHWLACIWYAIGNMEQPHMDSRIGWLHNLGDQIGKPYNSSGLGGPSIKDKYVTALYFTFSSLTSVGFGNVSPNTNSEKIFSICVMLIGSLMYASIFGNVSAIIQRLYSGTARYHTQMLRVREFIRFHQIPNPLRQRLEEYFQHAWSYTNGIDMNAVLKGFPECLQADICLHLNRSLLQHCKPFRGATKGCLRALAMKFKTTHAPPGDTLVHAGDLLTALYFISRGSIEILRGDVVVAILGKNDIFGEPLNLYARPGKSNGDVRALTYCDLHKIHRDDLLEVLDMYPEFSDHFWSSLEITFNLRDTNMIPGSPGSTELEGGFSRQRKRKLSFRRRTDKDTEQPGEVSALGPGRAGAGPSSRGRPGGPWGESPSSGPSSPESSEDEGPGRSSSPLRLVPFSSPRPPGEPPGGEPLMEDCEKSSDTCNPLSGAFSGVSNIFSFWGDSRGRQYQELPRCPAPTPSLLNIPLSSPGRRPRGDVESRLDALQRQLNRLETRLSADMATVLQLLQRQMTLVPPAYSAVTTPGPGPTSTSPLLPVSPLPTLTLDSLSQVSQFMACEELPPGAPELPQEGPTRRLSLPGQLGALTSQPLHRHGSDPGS

Regarding `CCn1c(C(=O)N(C2CC2)C2CC2)cc2c3c(ncn3C)c(Nc3nc(C(=O)NC)c(C)s3)nc21`, the pIC50 in series [1] was 7.00; in series [2] it was 7.66; in series [3], 8.51; in series [4], 7.31. Also, the Drug metabolism result in series [5] was “metabolite_detected”.
Consider `CCc1nc(Nc2nc3c(cc(C(=O)N(C4CC4)C4CC4)n3CC)c3c2ncn3C)sc1C`, for which the negative logarithm of the IC50 (pIC50) is 7.04 in series [1], 6.60 in series [2], 8.85 in series [3] and 6.34 in series [4].
In the case of `CCn1c(C(=O)N(C2CC2)C2CC2)cc2c3c(ncn3C)c(Nc3nc(C)c(C(=O)NC)s3)nc21`, the pIC50 in series [1] is 6.92; in series [2] it was 7.72; in series [3], 9.05; in series [4], 7.72. For the same compound, in series [5], the Drug metabolism entry is “metabolite_detected”.
For the compound `CCn1c(C(=O)N(C2CC2)C2CC2)cc2c3c(ncn3C)c(Nc3nc(C)c(C(=O)N4CCS(=O)(=O)CC4)s3)nc21`, the pIC50 in series [1] is 6.48; in series [2], 7.32; in series [3], 9.15; in series [4] it was 7.51.
In the case of `CCn1c(C(=O)N(C2CC2)C2CC2)cc2c3c(ncn3C)c(Nc3nc(C)c(S(C)(=O)=O)s3)nc21`, the pIC50 in series [1] is 7.29; in series [2], 7.40; in series [4] it was 7.28. Also, the Drug metabolism result in series [5] is “metabolite_detected”.
On to `CCn1c(C(=O)N(C2CC2)C2CC2)cc2c3c(ncn3C)c(Nc3cc(C)nn3C)nc21`, for which the negative-log IC50 (pIC50) in series [1] is less than 5.70; in series [2] it was 6.27; in series [3], 6.64; in series [4], 5.30; in series [6], 5.64.
Regarding `CCn1c(C(=O)N(C2CC2)C2CC2)cc2c3c(ncn3C)c(Nc3nc(C)n(C)n3)nc21`, the pIC50 in series [1] was 5.89; in series [2], 5.22; in series [3] it was 7.48; in series [4] it was 5.42.
Turning to `CCn1c(C(=O)N(C2CC2)C2CC2)cc2c3c(ncn3C)c(Nc3cc(C)[nH]n3)nc21`, the negative-log IC50 (pIC50) in series [1] is 7.28; in series [2] it was 7.80; in series [3] it was 8.92; in series [4] it was 7.06; in series [6], 8.72.
For the compound `CCn1nc(Nc2nc3c(cc(C(=O)N(C4CC4)C4CC4)n3CC)c3c2ncn3C)cc1C`, the pIC50 in series [1] is 7.26; in series [2], 6.48; in series [4], 6.68; in series [6] it was 6.66. Also, in series [7], 30 µM produced 75% inhibition.

In general, pIC50 refers to the IC50 on a negative log10 scale, so that one unit is a factor of ten. The term inhibition denotes the percentage by which the read-out fell short of the control.
